{"source": "patent US20110054033A1", "about": "“METHODS OF USING ABSCISIC ACID FOR AMELIORATING HYPERTENSION AND VASCULAR INFLAMMATION” (Virginia Tech Intellectual Properties, Inc., priority 2009, published 2011)", "key": {"[1]": {"system": "endothelial nitric oxide synthase (eNOS)", "assay": "Aortic gene expression by real-time RT-PCR: eNOS", "assay_type": "in vivo, mice", "details": "day 84, ratio to β-actin", "description": "(§1) FIG. 4 are photos and graphs showing aortas collected on day 84 of dietary intervention. Representative photomicrographs (100×) of aortic root specimens from (A) control and (B) ABA-fed mice. (C) Analysis of lumenal areas and (D) tunica media areas were performed with aortic cross-sections using Image Pro Plus software. (E) Aortic thickness was analyzed as a ratio of the intima to the media. Gene expression in the aorta of (F) endothelial nitric oxide synthase (eNOS) and (G) 15-lipoxygenase (15-LOX) were measured as a ratio to the house-keeping gene β-actin. Data were analyzed as a completely randomized design.\n(§2) Total RNA was isolated from aortas using the RNA isolation Minikit (Qiagen) according to the manufacturer's instructions. Total RNA (1 μg) was used to generate a complementary DNA (cDNA) template using the iScript cDNA Synthesis Kit (Bio-Rad, Hercules, Calif.). […] Each gene amplicon was purified with the MiniElute PCR Purification Kit (Qiagen) and quantitated on an agarose gel by using a DNA mass ladder (Promega). […]\n(§3) Complementary DNA (cDNA) concentrations for genes of interest were examined by real-time quantitative PCR using an iCycler IQ System and the iQ SYBR green supermix (Bio-Rad). […] Results are presented as a starting quantity of target cDNA (picograms) per microgram of total RNA. […]"}, "15-lipoxygenase (15-LOX)": {"system": "15-lipoxygenase (15-LOX)", "assay": "Aortic gene expression by real-time RT-PCR: 15-LOX", "assay_type": "in vivo, mice", "details": "day 84, ratio to β-actin", "description": "as §1, §2, §3"}, "[2]": {"system": "vascular smooth muscle cells and primary human monocytes", "details": "stimulated in culture for 6 hours, Magnone et al., 2009; cited from earlier work"}, "[3]": {"system": "human aorta endothelial cells (HAECs)", "assay": "Nitric oxide in HAEC culture supernatants", "assay_type": "cell-based", "details": "0.001-10 μM ABA", "description": "FIG. 7 are graphs showing effect of ABA on (A) cAMP; (B) NO; and (C) eNOS. (A) Confluent human aortic endothelial cell (HAEC) were serum-starved using HBSS buffer for 30 min and then stimulated with various concentrations of ABA (0, 0.01, 0.1, 1, 10 μM) or Forskolin (1 μM) for […]. After removing supernatant, cells were lysated with 0.1 M HCL for 20 minutes to measure non-acetylated cAMP. (B) Confluent HAEC were serum-starved using HBSS buffer for 30 minutes and then stimulated with various concentrations of ABA (0, 0.001, 0.01, 0.1, 1, 10 μM) for 15 minutes to measure NO. Results (pmol/ml) from four independent experiments are depicted. […]\nConfluent human aorta endothelial cells (HAECs) at passage 3 maintained with EGM-2 media (Clonetics, Walkerville, Md.) were adapted to Hank's buffered salt solution buffer for 30 min and then stimulated with ABA or forskolin (1 μM) for 10 min. For intracellular assessment of cAMP, the cells were harvested into 0.1 M HCL and the lysates were obtained by sonication and centrifugation. cAMP the lysates were determined by using an EIA kit (Assay Designs, Ann Arbor, Mich.) and results were obtained from four independent experiments. Nitric oxide levels in the cell culture supernatants were determined with the Nitric Oxide Assay Kit according to manufacturer's instructions (Assay Designs). […]"}, "[4]": {"system": "vascular cell adhesion molecule 1 (VCAM-1)", "assay": "Aortic gene expression by real-time RT-PCR: VCAM-1", "assay_type": "in vivo, mice", "details": "P=0.07", "description": "FIG. 6 are graphs showing that ABA decreases immune cell infiltration in aortas of ApoE−/− mice and reduces pro-inflammatory gene expression. ApoE −/− mice were fed high fat diets created with or without 100 mg/kg diet racemic abscisic acid (ABA). (A) Infiltration of F4/80^+CD11b^+ macrophages and CD4^+ T-cells into the aorta were assessed with flow cytometry. Gene expression in the aorta of pro-inflammatory markers (B) vascular cell adhesion molecule 1 (VCAM-1), (C) monocyte chemoattractant protein 1 (MCP-1), (D) E-selectin, (F) peroxisome proliferator-activated receptor γ (PPAR γ), and (G) CD36 were measured as a ratio to the housekeeping gene β-actin. (H) MCP-1 protein concentrations (pg/mL) were measured by ELISA. Data were analyzed as a completely randomized design.\nTotal RNA was isolated from aortas using the RNA isolation Minikit (Qiagen) according to the manufacturer's instructions. […] Each gene amplicon was purified with the MiniElute PCR Purification Kit (Qiagen) and quantitated on an agarose gel by using a DNA mass ladder (Promega). […]\nas §3"}}, "data": [{"smiles": "CC1=CC(=O)CC(C)(C)C1(O)/C=C/C(C)=C\\C(=O)O", "note": "(racemic) [ABA, abscisic acid]", "values": [{"measurement": "Aortic expression of eNOS mRNA vs control", "setting": "[1]", "value": "significantly elevated"}, {"measurement": "Aortic expression of 15-lipoxygenase mRNA vs control", "setting": "15-lipoxygenase (15-LOX)", "value": "significantly elevated"}, {"measurement": "MCP-1", "setting": "[2]", "value": "increases"}, {"measurement": "MMP-9", "setting": "[2]", "value": "increases"}, {"measurement": "NO production", "setting": "[3]", "value": "enhanced NO production"}, {"measurement": "VCAM-1 mRNA expression in the aortic roots vs control", "setting": "[4]", "value": "reduced, though not to statistical significance"}]}]}
